{"source": "patent US20240316015A1", "about": "“COMPOSITION AND METHOD FOR TREATING TUMORS” (NATURAL MEDICINE INSTITUTE OF ZHEJIANG YANGSHENGTANG CO., …, priority 2021, published 2024)", "key": {"MC38": {"test_system": "MC38", "test": "scratch test of MC38", "type": "cell-based", "conditions": "concentrations such as 5 μM, 10 μM or 20 μM; FIGS. 3-7", "protocol": "Different concentrations of PDE4 inhibitors, such as 5 μM, 10 μM, or 20 μM, were administered to verify the inhibitory effect on metastasis in the scratch test of MC38."}, "MC38 cells [1]": {"test_system": "MC38 cells", "test": "subcutaneous tumor model, colon cancer cells such as MC38", "type": "in vivo, C57 mice", "conditions": "e.g. 4 mg/kg + 2 mg/kg i.p. every 3 days, 6 doses", "quoted_text": "(1) Tumorigenesis in mice. 6-8 week-old C57 female mice were selected. Colon cancer cells, such as MC38 cells, were cultured in vitro to logarithmic phase, collected, and resuspended in a PBS buffer solution. The collected cells were subcutaneously injected into the leg of mice with 5×10^5 cells per mice to establish a subcutaneous tumor model.\n(2) After tumorigenesis, the mice were divided into four experimental groups including a blank control, a PDE4 inhibitor group, an immune checkpoint inhibitor group, and a PDE4 inhibitor+immune checkpoint inhibitor group. The mice in the PDE4 inhibitor+immune checkpoint inhibitor group were sequentially intraperitoneally injected with, e.g., 4 mg/kg of PDE4 inhibitor and, e.g., 2 mg/kg of immune checkpoint inhibitor (e.g., a PD-L1 antibody) every 3 days, with 6 doses in total, while the PDE4 inhibitor group and the immune checkpoint inhibitor group were separately injected with the same dose of PDE4 inhibitor and the immune checkpoint inhibitor in the same manner, and the blank control was injected with the same dose of normal saline. The day of the first injection was taken as day 1. The mice were detected for the weight and tumor size and recorded: the tumor volume (mm^3)=length (L)×width (W)^2/2, and then subject to Luciferin fluorescence imaging of tumor. That is, each mouse was intraperitoneally injected with 100 μL of 1 mg/mL aqueous solution of D-Luciferin potassium as formulated. 10 min after injection, the mice were subject to Luciferin fluorescence imaging using a Small Animal Liver Imaging System (model: IVIS Lumina XRMS Series III).\n(1) Tumorigenesis in mice. 6-8 week-old C57 female mice were selected. […]"}, "breast tumor cells 4T1": {"test_system": "breast tumor cells 4T1", "test": "mouse model of lung metastasis of breast cancer", "type": "in vivo", "conditions": "4T1 lung metastasis model; FIG. 8"}, "Melanoma cells": {"test_system": "Melanoma cells", "test": "subcutaneous tumor model, melanoma cells", "type": "in vivo, C57 mice", "conditions": "e.g. 4 mg/kg + 2 mg/kg i.p. every 3 days, 6 doses", "protocol": "(§1) (1) Tumorigenesis in mice. 6-8 week-old C57 female mice were selected. Melanoma cells were cultured in vitro to logarithmic phase, collected, and resuspended in a PBS buffer solution. The collected cells were subcutaneously injected into the leg of mice with 5×10^5 cells per mouse to establish a subcutaneous tumor model. (2) After tumorigenesis, the mice were divided into four experimental groups including a blank control, a PDE4 inhibitor group, an immune checkpoint inhibitor group, and a PDE4 inhibitor+immune checkpoint inhibitor group. […] The mice were detected for weight and tumor size and recorded: tumor volume (mm^3)=length (L)×width (W)^2/2, and then subject to Luciferin fluorescence imaging of tumor. […] 10 min after injection, the mice were subject to Luciferin fluorescence imaging using a Small Animal Live Imaging System (model: IVIS Lumina XRMS Series III). […] The mice were detected for weight and tumor size and recorded: tumor volume (mm^3)=length (L)×width (W)^2/2, and then subject to Luciferin fluorescence imaging of tumor. […] 10 min after injection, the mice were subject to Luciferin fluorescence imaging using a Small Animal Live Imaging System (model: IVIS Lumina XRMS Series III)."}, "MC38 cells [2]": {"test_system": "MC38 cells", "test": "tumor metastasis model, MC38 cells injected into the spleen of mice", "type": "in vivo, C57 mice", "conditions": "4 mg/kg intraperitoneally every 3 days, 6 doses; FIGS. 1A and 1B", "protocol": "In use, DMSO was used as the solvent for Oxaliplatin and Roflumilast. (1) Tumorigenesis in mice. 6-8 week-old C57 female mice were selected. MC38 cells were cultured in vitro to logarithmic phase, collected, and resuspended in a PBS buffer solution. The collected cells were injected into the spleen of mice through surgery with 5×10^5 MC38 cells per mouse to establish a tumor metastasis model. […] The day of the first injection was taken as Day 1. Then, the mice were detected for weight and recorded, and subject to Luciferin fluorescence imaging. That is, each mouse was intraperitoneally injected with 100 μL of 1 mg/mL aqueous solution of potassium D-Luciferin as formulated. 10 min after injection, the mice were subject to Luciferin fluorescence imaging using a Small Animal […] Imaging System (model: IVIS Lumina XRMS Series III)."}, "Lymphoma cells": {"test_system": "Lymphoma cells", "test": "subcutaneous tumor model, lymphoma cells", "type": "in vivo, C57 mice", "conditions": "in combination with anti-PD-L1 antibody; e.g. 4 mg/kg + 2 mg/kg i.p. every 3 days, 6 doses", "protocol": "(§2) (1) Tumorigenesis in mice. 6-8 week-old C57 female mice were selected. Lymphoma cells were cultured in vitro to logarithmic phase, collected, and resuspended in a PBS buffer solution. The collected cells were subcutaneously injected into the leg of mice with 5×10^5 cells per mouse to establish a subcutaneous tumor model. (2) After tumorigenesis, the mice were divided into four experimental groups including a blank control, a PDE4 inhibitor group, an immune checkpoint inhibitor group, and a PDE4 inhibitor+immune checkpoint inhibitor group. The mice in the PDE4 inhibitor+immune checkpoint inhibitor group were sequentially intraperitoneally injected with e.g. 4 mg/kg of PDE4 inhibitor and e.g. 2 mg/kg of immune checkpoint inhibitor (e.g., an PD-L1 antibody) every 3 days, with 6 doses in total, while the PDE4 inhibitor group and the immune checkpoint inhibitor group were separately injected with the same dose of PDE4 inhibitor and immune checkpoint inhibitor in the same manner, and the blank control was injected with the same dose of normal saline. […] The mice were detected for weight and tumor size and recorded: tumor volume (mm^3)=length (L)×width (W)^2/2, and then subject to Luciferin fluorescence imaging of tumor. […] 10 min after injection, the mice were subject to Luciferin fluorescence imaging using a Small Animal Live Imaging System (model: IVIS Lumina XRMS Series III)."}, "Hematologic tumor cells": {"test_system": "Hematologic tumor cells", "test": "subcutaneous tumor model, hematologic tumor cells", "type": "in vivo, C57 mice", "conditions": "in combination with anti-PD-L1 antibody; e.g. 4 mg/kg + 2 mg/kg i.p. every 3 days, 6 doses", "protocol": "as §2, with “Hematologic tumor” for “Lymphoma”"}, "Breast cancer cells": {"test_system": "Breast cancer cells", "test": "subcutaneous tumor model, breast cancer cells", "type": "in vivo, C57 mice", "conditions": "e.g. 4 mg/kg + 2 mg/kg i.p. every 3 days, 6 doses", "protocol": "as §1, with “Breast cancer” for “Melanoma”"}, "[3]": {"conditions": "in combination with anti-PD-1 antibody"}, "[4]": {"conditions": "in combination with anti-PD-L1 antibody"}}, "data": [{"compound": "O=C(O)Cc1ccc(Cc2cc(-c3cccc(Cl)c3)nc(C(F)(F)F)c2)cc1", "note": "[BPN14770, Benzeneacetic acid, 4-[[2-(3-chlorophenyl)-6-(trifluoromethyl)-4-pyridinyl]methyl]-]", "values": [{"measurement": "inhibitory effect on metastasis in the scratch test", "setting": "MC38", "result": "inhibiting metastasis"}]}, {"compound": "OCCN(CCO)c1nc(N2CCCCC2)c2nc(N(CCO)CCO)nc(N3CCCCC3)c2n1", "note": "[Dipyridamole]", "values": [{"measurement": "inhibitory effect on metastasis in the scratch test", "setting": "MC38", "result": "inhibiting metastasis"}]}, {"compound": "COc1cccc(Nc2c(C(N)=O)cnc3c(C)cc(S(=O)(=O)c4cccc(C(=O)N(C)C)c4)cc23)c1", "note": "[GSK256066]", "values": [{"measurement": "inhibitory effect on metastasis in the scratch test", "setting": "MC38", "result": "inhibiting the results of metastasis"}]}, {"compound": "O=C(Nc1c(Cl)cncc1Cl)c1ccc(OC(F)F)c(OCC2CC2)c1", "note": "[Roflumilast]", "values": [{"measurement": "inhibition of tumor growth", "setting": "MC38 cells [1]; in combination with anti-CTLA-4 antibody", "result": "Synergistically Inhibiting Growth of Colon Cancer"}, {"measurement": "inhibition of tumor growth", "setting": "MC38 cells [1]; in combination with anti-LAG-3 antibody", "result": "Synergistically Inhibiting Growth of Colon Cancer"}, {"measurement": "inhibition of tumor growth", "setting": "MC38 cells [1]; [3]", "result": "Synergistically Inhibiting Growth of Colon Cancer"}, {"measurement": "inhibitory effect on tumor metastasis", "setting": "breast tumor cells 4T1", "result": "significant inhibitory effect on tumor metastasis"}, {"measurement": "inhibition of tumor growth", "setting": "Melanoma cells; [3]", "result": "Synergistically Inhibiting Growth of Melanoma"}, {"measurement": "inhibition of tumor growth", "setting": "Melanoma cells; [4]", "result": "Synergistically Inhibiting Growth Of Melanoma"}, {"measurement": "inhibition of tumor metastasis (Luciferin fluorescence imaging)", "setting": "MC38 cells [2]", "result": "Capable of Inhibiting Tumor Metastasis"}, {"measurement": "inhibition of tumor growth", "setting": "Lymphoma cells", "result": "Synergistically Inhibiting Growth of Lymphoma"}, {"measurement": "inhibition of tumor growth", "setting": "Hematologic tumor cells", "result": "Synergistically Inhibiting Growth of Hematologic Tumor"}, {"measurement": "inhibitory effect on metastasis in the scratch test", "setting": "MC38", "result": "inhibiting metastasis"}, {"measurement": "inhibition of tumor growth", "setting": "Breast cancer cells; [3]", "result": "Synergistically Inhibiting Growth of Breast Cancer"}, {"measurement": "inhibition of tumor growth", "setting": "Breast cancer cells; [4]", "result": "Synergistically Inhibiting Growth of Breast Cancer"}]}, {"compound": "COc1ccc(C2CNC(=O)C2)cc1OC1CCCC1", "note": "(stereo not shown) [Rolipram, 4-(3-cyclopentyloxy-4-methoxyphenyl)pyrrolidin-2-one]", "values": [{"measurement": "inhibitory effect on metastasis in the scratch test", "setting": "MC38", "result": "inhibiting metastasis"}]}]}
